# System: 494315-158-R-J1-PDC complex spheroid growth, percent test/control
# Assay: Anticancer human tumor 494315-158-R-J1-PDC patient-derived soft tissue sarcoma cell line growth inhibition [Asc]
# Conditions: for IC50: curve of first compound; for viability, T/C: stronger effect = lower value
# Summary of the method: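 Tumor cells were grown as multicellular spheroids with stromal HUVEC and mesenchymal stem cells and treated singly or in combination. Concentrations fell in half-log steps from the clinical Cmax, or from 10 microM where none was known.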
# [1] = second compound 0.03 µM, first compound 0.0316 µM
# [2] = second compound 0.03 µM, first compound 0.1 µM
# [3] = second compound 0.03 µM, first compound 0.316 µM
# [4] = second compound 0.03 µM, first compound 1 µM
# [5] = second compound 0.03 µM, first compound 3.16 µM
# [6] = second compound 0.03 µM, first compound 10 µM
# [7] = second compound 0.0949 µM, first compound 0.0316 µM
# [8] = second compound 0.0949 µM, first compound 0.1 µM
# [9] = second compound 0.0949 µM, first compound 0.316 µM
# [10] = second compound 0.0949 µM, first compound 1 µM
# [11] = second compound 0.0949 µM, first compound 3.16 µM
# [12] = second compound 0.0949 µM, first compound 10 µM
# [13] = second compound 0.3 µM, first compound 0.0316 µM
# [14] = second compound 0.3 µM, first compound 0.1 µM
# [15] = second compound 0.3 µM, first compound 0.316 µM
# [16] = second compound 0.3 µM, first compound 1 µM
# [17] = second compound 0.3 µM, first compound 3.16 µM
# [18] = second compound 0.3 µM, first compound 10 µM
# [19] = second compound 0.949 µM, first compound 0.0316 µM
# [20] = second compound 0.949 µM, first compound 0.1 µM
# [21] = second compound 0.949 µM, first compound 0.316 µM
# [22] = second compound 0.949 µM, first compound 1 µM
# [23] = second compound 0.949 µM, first compound 3.16 µM
# [24] = second compound 0.949 µM, first compound 10 µM
# [25] = second compound 3 µM, first compound 0.0316 µM
# [26] = second compound 3 µM, first compound 0.1 µM
# [27] = second compound 3 µM, first compound 0.316 µM
# [28] = second compound 3 µM, first compound 1 µM
# [29] = second compound 3 µM, first compound 3.16 µM
# [30] = second compound 3 µM, first compound 10 µM
# 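Note: compound exposure lasted seven days after spheroids formed for three days.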
smiles,measurement,setting,value
C#Cc1c(F)ccc2cc(O)cc(-c3ncc4c(N5CC6CCC(C5)N6)nc(OCC56CCCN5CC(F)C6)nc4c3F)c12 (stereo not given) + CCN1C(C(=O)NC23CCC(C(=O)O)(CC2)CC3)C(c2cccc(Cl)c2F)C2(C(=O)Nc3cc(Cl)ccc32)C12CCCCC2,IC50,second compound 0.03 µM,> 10 µM
same,IC50,second compound 0.0949 µM,> 10 µM
same,IC50,second compound 0.3 µM,> 10 µM
same,IC50,second compound 0.949 µM,> 10 µM
same,IC50,second compound 3 µM,> 10 µM
same,"viability, T/C",[1],94.3%
same,"viability, T/C",[2],105%
same,"viability, T/C",[3],116%
same,"viability, T/C",[4],94.5%
same,"viability, T/C",[5],108%
same,"viability, T/C",[6],94.6%
same,"viability, T/C",[7],89.9%
same,"viability, T/C",[8],80.4%
same,"viability, T/C",[9],98.2%
same,"viability, T/C",[10],87.4%
same,"viability, T/C",[11],90.5%
same,"viability, T/C",[12],71.4%
same,"viability, T/C",[13],95.1%
same,"viability, T/C",[14],102%
same,"viability, T/C",[15],102%
same,"viability, T/C",[16],103%
same,"viability, T/C",[17],108%
same,"viability, T/C",[18],75.9%
same,"viability, T/C",[19],85.1%
same,"viability, T/C",[20],100%
same,"viability, T/C",[21],107%
same,"viability, T/C",[22],83.8%
same,"viability, T/C",[23],110%
same,"viability, T/C",[24],86.2%
same,"viability, T/C",[25],89.5%
same,"viability, T/C",[26],91.5%
same,"viability, T/C",[27],89%
same,"viability, T/C",[28],107%
same,"viability, T/C",[29],100%
same,"viability, T/C",[30],85.6%
C=C(F)C(=O)N1CCN(c2nc(OCC3CCCN3C)nc3c2CCN(c2cccc4cccc(Cl)c24)C3)CC1CC#N (stereo not given) + CCN1C(C(=O)NC23CCC(C(=O)O)(CC2)CC3)C(c2cccc(Cl)c2F)C2(C(=O)Nc3cc(Cl)ccc32)C12CCCCC2,IC50,second compound 0.03 µM,4.19 µM
same,IC50,second compound 0.0949 µM,3.18 µM
same,IC50,second compound 0.3 µM,3.8 µM
same,IC50,second compound 0.949 µM,4.17 µM
same,IC50,second compound 3 µM,4.11 µM
same,"viability, T/C",[1],106%
same,"viability, T/C",[2],103%
same,"viability, T/C",[3],105%
same,"viability, T/C",[4],118%
same,"viability, T/C",[5],66%
same,"viability, T/C",[6],0.19%
same,"viability, T/C",[7],99.9%
same,"viability, T/C",[8],101%
same,"viability, T/C",[9],93.2%
same,"viability, T/C",[10],95.2%
same,"viability, T/C",[11],50.2%
same,"viability, T/C",[12],0.16%
same,"viability, T/C",[13],110%
same,"viability, T/C",[14],93%
same,"viability, T/C",[15],80.3%
same,"viability, T/C",[16],111%
same,"viability, T/C",[17],59.5%
same,"viability, T/C",[18],0.19%
same,"viability, T/C",[19],87.1%
same,"viability, T/C",[20],109%
same,"viability, T/C",[21],95.9%
same,"viability, T/C",[22],76.7%
same,"viability, T/C",[23],70%
same,"viability, T/C",[24],0.2%
same,"viability, T/C",[25],96.7%
same,"viability, T/C",[26],102%
same,"viability, T/C",[27],100%
same,"viability, T/C",[28],87.2%
same,"viability, T/C",[29],65.6%
same,"viability, T/C",[30],0.27%
C=CC(=O)N1CCN(c2nc(=O)n(-c3c(C)ccnc3C(C)C)c3nc(-c4c(O)cccc4F)c(F)cc23)C(C)C1 (stereo not given) + CCN1C(C(=O)NC23CCC(C(=O)O)(CC2)CC3)C(c2cccc(Cl)c2F)C2(C(=O)Nc3cc(Cl)ccc32)C12CCCCC2,IC50,second compound 0.03 µM,> 10 µM
same,IC50,second compound 0.0949 µM,> 10 µM
same,IC50,second compound 0.3 µM,> 10 µM
same,IC50,second compound 0.949 µM,> 10 µM
same,IC50,second compound 3 µM,> 10 µM
same,"viability, T/C",[1],111%
same,"viability, T/C",[2],97.2%
same,"viability, T/C",[3],119%
same,"viability, T/C",[4],128%
same,"viability, T/C",[5],128%
same,"viability, T/C",[6],104%
same,"viability, T/C",[7],90.4%
same,"viability, T/C",[8],96.8%
same,"viability, T/C",[9],96.3%
same,"viability, T/C",[10],110%
same,"viability, T/C",[11],92.8%
same,"viability, T/C",[12],99.9%
same,"viability, T/C",[13],97.6%
same,"viability, T/C",[14],119%
same,"viability, T/C",[15],111%
same,"viability, T/C",[16],119%
same,"viability, T/C",[17],114%
same,"viability, T/C",[18],117%
same,"viability, T/C",[19],85.5%
same,"viability, T/C",[20],114%
same,"viability, T/C",[21],106%
same,"viability, T/C",[22],108%
same,"viability, T/C",[23],130%
same,"viability, T/C",[24],110%
same,"viability, T/C",[25],102%
same,"viability, T/C",[26],96.9%
same,"viability, T/C",[27],97.9%
same,"viability, T/C",[28],113%
same,"viability, T/C",[29],126%
same,"viability, T/C",[30],104%
CNC(C)C(=O)NC1CN(S(=O)(=O)c2cccc(S(=O)(=O)N3CCC4CCC(C(=O)NC(c5ccccc5)c5ccccc5)N4C(=O)C(NC(=O)C(C)NC)C3)c2)CCC2CCC(C(=O)NC(c3ccccc3)c3ccccc3)N2C1=O (stereo not given) + CCN1C(C(=O)NC23CCC(C(=O)O)(CC2)CC3)C(c2cccc(Cl)c2F)C2(C(=O)Nc3cc(Cl)ccc32)C12CCCCC2,IC50,second compound 0.03 µM,0.0423 µM
same,IC50,second compound 0.0949 µM,0.0381 µM
same,IC50,second compound 0.3 µM,0.0411 µM
same,IC50,second compound 0.949 µM,0.0834 µM
same,IC50,second compound 3 µM,0.0367 µM
same,"viability, T/C","second compound 0.03 µM, first compound 0.00316 µM",87.4%
same,"viability, T/C","second compound 0.03 µM, first compound 0.01 µM",65.2%
same,"viability, T/C",[1],54%
same,"viability, T/C",[2],39.5%
same,"viability, T/C",[3],43.4%
same,"viability, T/C",[4],31.9%
same,"viability, T/C","second compound 0.0949 µM, first compound 0.00316 µM",66.8%
same,"viability, T/C","second compound 0.0949 µM, first compound 0.01 µM",72.6%
same,"viability, T/C",[7],45.8%
same,"viability, T/C",[8],42%
same,"viability, T/C",[9],31.1%
same,"viability, T/C",[10],26.3%
same,"viability, T/C","second compound 0.3 µM, first compound 0.00316 µM",70.9%
same,"viability, T/C","second compound 0.3 µM, first compound 0.01 µM",63.6%
same,"viability, T/C",[13],51.9%
same,"viability, T/C",[14],43.9%
same,"viability, T/C",[15],36.7%
same,"viability, T/C",[16],38.5%
same,"viability, T/C","second compound 0.949 µM, first compound 0.00316 µM",71%
same,"viability, T/C","second compound 0.949 µM, first compound 0.01 µM",62.3%
same,"viability, T/C",[19],60.6%
same,"viability, T/C",[20],49.2%
same,"viability, T/C",[21],36.7%
same,"viability, T/C",[22],34.4%
same,"viability, T/C","second compound 3 µM, first compound 0.00316 µM",67.6%
same,"viability, T/C","second compound 3 µM, first compound 0.01 µM",61.7%
same,"viability, T/C",[25],51.2%
same,"viability, T/C",[26],41.1%
same,"viability, T/C",[27],28.4%
same,"viability, T/C",[28],31.4%
